According to patent US7056506B2, “Methods for detecting and inhibiting angiogenesis” (The Regents of the University of California, priority 1998, dated 2006):

Tests used:
[1] = system: HUVEC's; assay: Cell migration assay on fibronectin; assay type: cell-based, human
Procedure: The lower side of 8 μm pore transwell inserts (Costar, Inc.) were coated with 2 μg/ml of fibronectin, collagen (Collaborative Biomedical Products; Bedford Mass.) or no protein for 1 hr and were blocked with 2% BSA in PBS for 1 hr. The inserts then were placed into 24 well culture dishes containing 500 μl migration buffer in the lower chamber. Twenty-five thousand HUVEC's in 50 μl of migration buffer (HEPES buffered M199 medium containing 1% BSA, 2 mM MgCl2, 2 mM CaCl2 and 0.2 mM MnCl2) were added to the upper chamber of duplicate inserts containing 50 μl of a solution of 50 μg/ml of anti-α5β1 function blocking antibody (NKI-SAM-1, JBS5 or IIA1), 50 μg/ml of anti-α5β1 non-function blocking antibody (HA5 or VC5), or 50 μg/ml of LM609 (an anti-αVβ3 function blocking antibody) in migration buffer, or migration buffer alone.
Cells were allowed to migrate from the upper to the lower chamber for 4 hr at 37° C. Nonmigratory cells were removed from the upper surface by wiping the upper side with an absorbant tip, and cells that had migrated to the lower side of the transwell insert were fixed for 15 min with 3.7% paraformaldehyde in PBS, then stained with a 2% crystal violet solution. After extensive water washing to remove excess crystal violet, the number of cells that had migrated were counted in three representative high power (200×) fields per insert. […]

[2] = system: Human umbilical vein endothelial cells (HUVEC's); assay: Cell adhesion assay, adhesion to fibronectin; assay type: cell-based
Description: (§1) HT29 integrin α5β1^+ cells, integrin α5β1^− colon carcinoma cells (Varner et al., Mol. Biol. Cell 6:725–740 (1995)), and chick embryo fibroblasts (CEF's) were maintained in DMEM high glucose supplemented with 10% fetal bovine serum (FBS) and gentamycin. Human umbilical vein endothelial cells (HUVEC's) were maintained in M199 medium containing sodium bicarbonate, HEPES, heparin, endothelial cell growth supplement, 20% FBS and gentamycin. Culture media and reagents were from Irvine Scientific (Irvine, Calif.).
(§2) The wells of 48 well culture dishes (Costar, Inc.) were coated with 1 μg/ml vitronectin, 2 μg/ml fibronectin (chick embryo fibroblasts and HUVEC's) or 10 μg/ml fibronectin (HT29-α5^+ cells) for 1 hr at 37° C., then blocked with 2% heat denatured BSA in PBS for 1 hr. Fifty thousand cells in 250 μl of adhesion buffer were added to triplicate wells containing 250 μl of a solution of 50 μg/ml of an anti-α5β1 function blocking antibody (NKI-SAM-1, JBS5 or IIA1), 50 μg/ml of an anti-α5β1 non-function blocking antibody (HA5 or VC5; Pharmingen, Inc.; San Diego Calif.), 10 μM cyclic peptides (Koivunen et al., J. Biol. Chem. 268:20205–20210 (1993); Koivunen et al., J. Cell Biol. 124:373380 (1994)), 0–10 μM SJ749 ((S)-2-{(2,4,6-trimethylphenyl)sulfonyl}amino-3{7-benzyloxycarbonyl-8-(2-pyridinylaminomethyl)-1-oxa-2,7-diazaspiro-{4,4}-non-2-en-3-yl}carbonylamino}propionic acid)), 50 μg/ml of LM609, an anti-αVβ3 function blocking antibody, 50 μg/ml P4C10, an anti-β1 function blocking antibody, 50 μg/ml of an anti-fibronectin cell binding domain monoclonal antibody or 50 μg/ml of an anti-fibronectin N-terminus monoclonal antibody in adhesion buffer (HEPES buffered Hanks balanced salt solution, HBSS, containing 1% BSA, 2 mM MgCl2, 2 mM CaCl2 and 0.2 mM MnCl2).
(§3) Cells were allowed to adhere to dishes for 20 min at 37° C. Nonadherent cells were removed by washing each well four times with 500 μl of warm adhesion buffer. Adherent cells were then fixed for 15 min with 3.7% paraformaldehyde in PBS and stained with a 2% crystal violet solution. After extensive water washing to remove excess crystal violet, plates were dried overnight. Crystal violet was extracted by incubation for 15 min in 10% acetic acid and absorbance at 562 nm determined as an indicator of number of cells bound. Each experiment was performed in triplicate, with triplicate samples per condition.

[3] = system: chick embryo fibroblasts (CEF's); assay: Cell adhesion assay, adhesion to fibronectin; assay type: cell-based
Description: as §1, §2, §3

[4] = system: HT29 colon carcinoma cells lacking α5β1 expression; assay: Chick CAM tumor assay, HT29; assay type: in vivo; details: HT29 tumors on CAM
Procedure: The chick CAM tumor assay was performed by placing ten million tumor cells on the surface of a CAM, and culturing the cells for one week. The resulting tumors were excised and cut into 50 mg fragments. […] Forty-eight hours later, CAM's were excised from the egg and the number of blood vessels entering the tumors were counted (as vessel branch points).
Data was presented as mean blood vessel number per treatment group (+/− standard error of measurement). Each treatment group incorporated at least ten tumors per experiment. Representative tumors were photographed at 10× magnification. Tumors were excised from the egg and tumor weights were determined for each tumor Data was presented as mean tumor weight per treatment group (+/− standard error of measurement). Statistical analyses were performed using Student's t-test.
HT29 colon carcinoma cells lacking α5β1 expression were grown on the CAM's of 10-day old embryos. These tumor cells secrete several angiogenic growth factors, including VEGF, TGFα, TGFβ, TNFα, and IL-8 (Anzano et al., Cancer Res. 49:2898–2904 (1989); Varner et. al., supra, 1995; Ellis et al., J. Biol. Chem. 273:1052–1057 (1998)). Integrin α5β1 negative tumor cells were used to distinguish the potential anti-tumor effects from anti-vasculature effects of integrin α5β1 antagonists.

[5] = system: α5^+ HT29 cells; assay: Cell adhesion assay, adhesion to fibronectin; assay type: cell-based, human
Description: as §1, §2
Cells were allowed to adhere to dishes for 20 min at 37° C. Nonadherent cells were removed by washing each well four times with 500 μl of warm adhesion buffer. […] Crystal violet was extracted by incubation for 15 min in 10% acetic acid and absorbance at 562 nm determined as an indicator of number of cells bound. […]

Cc1cc(C)c(S(=O)(=O)N[C@@H](CNC(=O)C2=NOC3(C2)CC(CNc2ccccn2)N(C(=O)OCc2ccccc2)C3)C(=O)O)c(C)c1 (some centres unmarked) [SJ749]
effect on endothelial cell migration on fibronectin [1]: highly effective | effect on adhesion to fibronectin [2]: blocked | effect on adhesion to fibronectin [3]: blocked | effect on tumor size [4]: induced tumor regression | effect on adhesion to fibronectin [5]: inhibitory effect
